Reference: US20220348590A1, “CYCLOOXYGENASE-2 INHIBITORS AND USES THEREOF” (The Board Institute, Inc., priority 2019, published 2022)
Converted amounts (≈) assume the structure as drawn. Read-outs that look alike come from different tables or passages of the source.

What was measured:
ovine COX-1 (oCOX-1) = molecular target: T1, ovine COX-1 (oCOX-1) (Ovis aries, UniProt P05979); assay: LCMS-based COX-1 enzymatic inhibition assay (PGE2 quantification); type: biochemical; conditions: for COX1 10 minutes pge2/pge2d4 area ratio Avg. LLE / COX1 10 minutes pge2 area (counts) Avg. LLE: average LLE
T1 construct: purchased Cayman Chemicals (Ann Arbor, Mich.)
T1 sequence (P05979 25-600): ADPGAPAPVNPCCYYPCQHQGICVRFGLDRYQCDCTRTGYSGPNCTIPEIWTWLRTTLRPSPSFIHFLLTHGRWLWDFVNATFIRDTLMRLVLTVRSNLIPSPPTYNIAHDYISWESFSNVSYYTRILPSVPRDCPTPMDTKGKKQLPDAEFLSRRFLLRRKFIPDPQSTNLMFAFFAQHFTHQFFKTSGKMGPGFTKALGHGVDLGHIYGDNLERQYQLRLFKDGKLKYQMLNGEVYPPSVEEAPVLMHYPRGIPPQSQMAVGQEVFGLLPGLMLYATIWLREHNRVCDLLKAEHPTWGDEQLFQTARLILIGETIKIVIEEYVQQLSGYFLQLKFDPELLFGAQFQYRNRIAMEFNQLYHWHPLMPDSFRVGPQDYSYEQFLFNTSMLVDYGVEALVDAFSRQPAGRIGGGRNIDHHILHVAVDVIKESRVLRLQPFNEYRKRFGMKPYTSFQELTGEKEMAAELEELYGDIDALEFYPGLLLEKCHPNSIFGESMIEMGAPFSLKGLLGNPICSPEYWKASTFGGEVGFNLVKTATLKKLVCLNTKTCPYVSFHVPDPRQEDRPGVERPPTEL
Method in brief: (§1)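 Ovine COX-1 (0.1 μg) or human recombinant COX2 (0.2 μg) in 100 mM Tris.HCl pH 8.0 with hematin and epinephrine, preincubated with inhibitor 10 min at 37 °C. Reaction with 5 μM arachidonic acid stopped after 2 min with HCl; PGE2 quantified by LC-MS-MS. IC50 from 12 concentrations in triplicate.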

[1] = mouse plasma protein binding (PPB) assay; type: in vitro ADME; conditions: average, read-out: Mouse Plasma Protein Binding % Bound Avg (converted)
Method: (§2) We have adapted a previously reported cyclooxygenase enzymatic assay utilizing LCMS quantification of PGE2 as the product of COX-1 and COX2 catalyzed conversion of arachidonic acid to evaluate the binding properties of newly synthesized ligands [Cao, 2011]. These optimized and miniaturized (384-well plates) LCMS-based COX-1 and COX2 enzymatic assays enabled us to quickly evaluate newly synthesized ligands for COX2 binding affinity and selectivity vs COX-1. Using a shorter ligand-enzyme incubation time in the LCMS assay (2 minutes vs 10 minutes) also permitted us to prioritize ligands with faster binding kinetics. Considering the relatively slow on-rate kinetics of known coxibs, due to their 3-step binding mechanism [Marnett, 2009], we believe that optimizing this critical parameter will be key to the successful development of a COX2 PET tracer. Using these enzymatic assays, we have evaluated>200 newly synthesized ligands against COX2 and >20 ligands against COX-1. Another critical property necessary for a good PET radiotracer is to have low non-specific binding (NSB) to increase the free fraction and maximize the signal to noise ratio. This property can be evaluated using in-vitro protein binding assays, and we have now evaluated>50 newly synthesized ligands in mouse, rat and human plasma protein binding (PPB) assays as well as >15 ligands in a mouse brain protein binding (BPB) assay.

[2] = Mouse Plasma Protein Stability (% Remaining); type: in vitro ADME; conditions: average
[3] = molecular target: T2, human recombinant COX2 (hCOX2) (UniProt P35354); assay: LCMS-based COX2 enzymatic inhibition assay (PGE2 quantification); type: biochemical; design: COX2 2 minutes pge2/pge2d4 area ratio Avg; other: 2 minutes; readout pge2/pge2d4 area ratio; average; COX2 2 minutes pge2/pge2d4 area ratio Avg; LLE; average LLE; COX2 2 minutes pge2 area (counts) Avg; readout pge2 area (counts); other: 2 min; "ovine COX2 (oCOX2), human recombinant COX2 (hCOX2)"; conditions: for COX2 2 minutes pge2/pge2d4 area ratio Avg. LLE / COX2 2 minutes pge2 area (counts) Avg. LLE / COX2 10 minutes pge2 area (counts) Avg. LLE: average LLE; for IC50: average
T2 sequence (P35354 1-604): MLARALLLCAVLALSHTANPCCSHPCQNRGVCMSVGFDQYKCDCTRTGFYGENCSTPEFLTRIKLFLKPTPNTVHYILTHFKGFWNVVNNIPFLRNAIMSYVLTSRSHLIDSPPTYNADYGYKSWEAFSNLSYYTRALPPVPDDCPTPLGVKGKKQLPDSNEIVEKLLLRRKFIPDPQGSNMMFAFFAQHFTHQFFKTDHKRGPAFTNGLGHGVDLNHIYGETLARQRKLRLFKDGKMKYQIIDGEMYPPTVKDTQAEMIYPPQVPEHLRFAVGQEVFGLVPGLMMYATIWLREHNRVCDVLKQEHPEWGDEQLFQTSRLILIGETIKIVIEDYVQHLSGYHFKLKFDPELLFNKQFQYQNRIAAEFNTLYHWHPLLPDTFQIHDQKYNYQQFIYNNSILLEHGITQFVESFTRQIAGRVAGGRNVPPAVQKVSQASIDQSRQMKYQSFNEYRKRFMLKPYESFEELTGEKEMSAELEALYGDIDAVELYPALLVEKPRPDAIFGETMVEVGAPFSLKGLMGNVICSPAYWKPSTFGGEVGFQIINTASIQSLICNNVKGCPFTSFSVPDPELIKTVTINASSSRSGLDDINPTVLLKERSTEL
Method in brief: as §1

[4] = rat plasma protein binding (PPB) assay; type: in vitro ADME; conditions: average, read-out: Rat Plasma Protein Binding % Bound Avg (converted)
Method: as §2

[5] = human plasma protein binding (PPB) assay; type: in vitro ADME; conditions: average, read-out: Human Plasma Protein Binding % Bound Avg (converted)
Method: as §2

PBS Solubility (no DMSO) = type: physicochemical; conditions: aqueous buffer, thermodynamic from solid, average
[6] = Human Plasma Protein Stability (% Remaining); type: in vitro ADME; conditions: average
[7] = Human Microsome Stability; type: in vitro ADME; conditions: human microsomes
[8] = Rat Plasma Protein Stability (% Remaining); type: in vitro ADME; conditions: average
[9] = 10 minutes, readout pge2/pge2d4 area ratio
[10] = 10 minutes, readout pge2 area (counts)
[11] = 2 minutes, readout pge2/pge2d4 area ratio
[12] = 2 minutes, readout pge2/pge2d4 area ratio, read-out: COX2 2 minutes pge2/pge2d4 area ratio Avg. IC50
[13] = 2 minutes, readout pge2 area (counts)
[14] = 2 minutes, readout pge2 area (counts), read-out: COX2 2 minutes pge2 area (counts) Avg. IC50
[15] = 10 minutes, readout pge2/pge2d4 area ratio, average, read-out: COX1 10 minutes pge2/pge2d4 area ratio Avg. IC50
[16] = 10 minutes, readout pge2 area (counts), average, read-out: COX1 10 minutes pge2 area (counts) Avg. IC50
[17] = 10 minutes, readout pge2 area (counts), read-out: COX2 10 minutes pge2 area (counts) Avg. IC50

COX1 10 minutes pge2/pge2d4 area ratio Avg. LLE (ovine COX-1 (oCOX-1); [9]) | COX1 10 minutes pge2 area (counts) Avg. LLE (ovine COX-1 (oCOX-1); [10]) | fraction unbound [1] | Mouse Plasma Protein Stability % Remaining Avg [2] [%] | COX2 2 minutes pge2/pge2d4 area ratio Avg. LLE [3, 11] | IC50 [3, 12] [nM] | COX2 2 minutes pge2 area (counts) Avg. LLE [3, 13] | IC50 [3, 14] [nM] | IC50 (ovine COX-1 (oCOX-1); [15]) [nM] | IC50 (ovine COX-1 (oCOX-1); [16]) [nM] | fraction unbound [4] | fraction unbound [5] | solubility (PBS Solubility (no DMSO)) [µM] | Human Plasma Protein Stability % Remaining Avg [6] [%] | Human Microsome Stability % Remaining Avg [7] [%] | Rat Plasma Protein Stability % Remaining Avg [8] [%] | COX2 10 minutes pge2 area (counts) Avg. LLE [3, 10] | IC50 [3, 17] [nM] | Structure (SMILES) | IC50 (ovine COX-1 (oCOX-1)) [nM]
2.392 | 2.308 | 0.002 | 103.7 | 4.93 | 9.99 | 5.018 | 8.22 | 3140 | 4430 | – | – | – | – | – | – | – | – | CS(=O)(=O)c1ccc(-c2cncc(SCc3cccs3)n2)cc1 [Compound 18] | –
– | – | – | – | – | 22 | – | 20.1 | – | – | 0.031 | 0.02 | 40 (≈ 13.9 µg/mL) | 96 | 34 | 128 | – | – | CS(=O)(=O)c1ccc(-c2nc(NCc3ccoc3)ccc2F)cc1 [Compound 48] | –
4.28 | 4.323 | 0.015 | 94.9 | 6.484 | 5.55 | 6.512 | 5.38 | 1100 | 913 | – | – | 8.5 (≈ 2.95 µg/mL) | – | – | – | – | – | NS(=O)(=O)c1ccc(-c2cncc(OCc3cccs3)n2)cc1 [Compound 3] | –
0.4674 | – | – | – | 4.3 | 8.03 | 4.276 | 8.91 | 48900 | – | 0.003 | 0.003 | 3.7 (≈ 1.28 µg/mL) | 114 | 35 | 121 | – | – | CS(=O)(=O)c1ccc(-c2cccc(OCc3ccsc3)n2)cc1 [Compound 9] | –
2.125 | 2.0112 | 0.001 | 36.7 | 4.852 | 25 | 4.799 | 27.6 | 8610 | 11700 | – | – | – | – | – | – | – | – | C[C@H](Oc1cncc(-c2ccc(S(C)(=O)=O)cc2)n1)c1cccs1 (single isomer, unassigned) [Compound 53] | –
– | – | 0.015 | 100.9 | 4.433 | 15.5 | 4.493 | 14 | – | – | – | – | – | – | – | – | 5.338 | 2.5 | COc1cc(NCc2cccs2)cc(-c2ccc(S(C)(=O)=O)cc2)n1 [Compound 32] | –
0.9493 | 0.6431 | 0.018 | 97.5 | 3.778 | 12 | 3.652 | 16.6 | 11400 | 16700 | – | – | – | – | 43 | – | – | – | CS(=O)(=O)c1ccc(-c2ccc3ccn(Cc4ccoc4)c3n2)cc1 [Compound 26] | –
3.094 | 3.234 | 0.015 | 109.5 | 5.185 | 23.9 | 5.211 | 23.2 | 2930 | 2230 | – | – | – | – | – | – | 6.088 | 3.57 | CN(Cc1cccs1)c1cncc(-c2ccc(S(C)(=O)=O)cc2)n1 [Compound 51] | –
– | – | – | – | – | 6.05 | – | 7.14 | – | – | 0.001 | 0.001 | – | 102 | – | 99 | – | – | CS(=O)(=O)c1ccc(-c2nc(OCc3cccs3)cc3ccoc23)cc1 [Compound 5] | –

Structure (SMILES) | COX1 10 minutes pge2/pge2d4 area ratio Avg. LLE (ovine COX-1 (oCOX-1); [9]) | COX1 10 minutes pge2 area (counts) Avg. LLE (ovine COX-1 (oCOX-1); [10]) | fraction unbound [1] | Mouse Plasma Protein Stability % Remaining Avg [2] [%] | COX2 2 minutes pge2/pge2d4 area ratio Avg. LLE [3, 11] | IC50 [3, 12] [nM] | COX2 2 minutes pge2 area (counts) Avg. LLE [3, 13] | IC50 [3, 14] [nM] | IC50 (ovine COX-1 (oCOX-1); [15]) [nM] | IC50 (ovine COX-1 (oCOX-1); [16]) [nM] | fraction unbound [4] | fraction unbound [5] | solubility (PBS Solubility (no DMSO)) [µM] | Human Plasma Protein Stability % Remaining Avg [6] [%] | Human Microsome Stability % Remaining Avg [7] [%] | Rat Plasma Protein Stability % Remaining Avg [8] [%] | COX2 10 minutes pge2 area (counts) Avg. LLE [3, 10] | IC50 [3, 17] [nM] | IC50 (ovine COX-1 (oCOX-1)) [nM]
CCOc1ncc(NCc2cccs2)nc1-c1ccc(S(C)(=O)=O)cc1 [Compound 25] | 1.374 | 1.374 | 0.015 | 93.1 | 5.041 | 11.8 | 4.857 | 19.6 | – | – | – | – | – | – | – | – | – | – | 52000
Cc1ccsc1CNc1cccc(-c2ccc(S(C)(=O)=O)cc2)n1 [Compound 7] | 0.564 | 0.564 | 0.015 | 97.8 | 4.522 | 6.36 | 4.509 | 7.11 | – | – | – | – | – | – | – | – | – | – | 52000
